Measured values from US9212163B2, “Pesticidal compositions and processes related thereto” (Dow AgroSciences LLC, priority 2012, dated 2015).
Where two headings read alike, the source gives them in different places.

Experiments:
[1] = tested on: Corn Earworm (CEW) (Helicoverpa zea); test: Bioassay on Corn Earworm (CEW), 128-well diet tray assay; assay type: in vivo; conditions: Table 3: Assay Results Part 1, read-out: CEW Rating
Procedure: (§1) Certain molecules disclosed in this document were tested against BAW, CEW and CL using procedures described in the following examples. In the reporting of the results, the “BAW & CEW & CL Rating Table” was used (See Table Section).
Bioassays on CEW (Helicoverpa zea)
Bioassays on CEW were conducted using a 128-well diet tray assay. One to five second instar CEW larvae were placed in each well (3 mL) of the diet tray that had been previously filled with 1 mL of artificial diet to which 50 μg/cm^2 of the test compound (dissolved in 50 μL of 90:10 acetone-water mixture) had been applied (to each of eight wells) and then allowed to dry. Trays were covered with a clear self-adhesive cover, and held at 25° C., 14:10 light-dark for five to seven days. Percent mortality was recorded for the larvae in each well; activity in the eight wells was then averaged. The results are indicated in the table entitled “Table 3: Assay Results Part 1” (See Table Section).

[2] = tested on: Beet Armyworm (BAW) (Spodoptera exigua); test: Bioassay on Beet Armyworm (BAW), 128-well diet tray assay; assay type: in vivo; conditions: Spodoptera exigua, read-out: BAW Rating
Outline: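 Artificial diet treated with 50 μg/cm^2 compound in 90:10 acetone-water was dried, then one to five second-instar larvae were placed per well, eight wells per compound. Trays were held at 25° C., 14:10 light-dark for five to seven days, and percent mortality averaged across wells.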

[3] = tested on: Cabbage Looper (CL) (Trichoplusia ni); test: Bioassay on Cabbage Looper (CL), 128-well diet tray assay; assay type: in vivo; conditions: Table 5: Prophetic Compounds Subsequently Exemplified, read-out: CL Rating
Procedure: as §1
Bioassays on CL (Trichoplusia ni)
Bioassays on CL were conducted using a 128-well diet tray assay. One to five second instar CL larvae were placed in each well (3 mL) of the diet tray that had been previously filled with 1 mL of artificial diet to which 50 μg/cm^2 of the test compound (dissolved in 50 μL of 90:10 acetone-water mixture) had been applied (to each of eight wells) and then allowed to dry. Trays were covered with a clear self-adhesive cover, and held at 25° C., 14:10 light-dark for five to seven days. Percent mortality was recorded for the larvae in each well; activity in the eight wells was then averaged. The results are indicated in the table entitled “Table 4: Assay Results Part 2” (See Table Section).

[4] = tested on: Green Peach Aphid (GPA) (Myzus persicae); test: Bioassay on Green Peach Aphid (GPA), foliar spray on cabbage seedlings; assay type: in vivo; conditions: 72 h, Table 5: Prophetic Compounds Subsequently Exemplified, read-out: GPA Rating
Procedure: Certain molecules disclosed in this document were tested against GPA using procedures described in the following example. In the reporting of the results, the “GPA Rating Table” was used (See Table Section).
Cabbage seedlings grown in 3-inch pots, with 2-3 small (3-5 cm) true leaves, were used as test substrate. The seedlings were infested with 20-50 GPA (wingless adult and nymph stages) one day prior to chemical application. Four pots with individual seedlings were used for each treatment. Test compounds (2 mg) were dissolved in 2 mL of acetone/methanol (1:1) solvent, forming stock solutions of 1000 ppm test compound. The stock solutions were diluted 5× with 0.025% Tween 20 in H2O to obtain the solution at 200 ppm test compound. A hand-held aspirator-type sprayer was used for spraying a solution to both sides of […] leaves until runoff. Reference plants (solvent check) were sprayed with the diluent only containing 20% by volume of acetone/methanol (1:1) solvent. Treated plants were held in a holding room for three days at approximately 25° C. and ambient relative humidity (RH) prior to grading. Evaluation was conducted by counting the number of live aphids per plant under a microscope. Percent Control was measured by using Abbott's correction formula (W. S. Abbott, “A Method of Computing the Effectiveness of an Insecticide” J. Econ. Entomol. 18 (1925), pp. 265-267) as follows. Corrected % Control=100*(X−Y)/X • where • X=No. of live aphids on solvent check plants and • Y=No. of live aphids on treated plants
The results are indicated in the tables entitled “Table 3: Assay Results” and “Table 4: Assay Results Part 2” (See Table Section).

[5] = Table 5: Prophetic Compounds Subsequently Exemplified

Row | SMILES | pest or weed control at 50 µg/cm2 [3] | pest or weed control at 50 µg/cm2 [2, 5] | other results
1 | NC(=O)c1ccc(/C=C/C(c2cc(Cl)cc(Cl)c2)C(F)(F)F)cc1 (centres unmarked) [AC2] | – | – | melting point: 110 to 112 °C
2 | Cc1cc(/C=C/C(c2cc(Cl)cc(Cl)c2)C(F)(F)F)ccc1C(=O)NCC(=O)NCC(F)(F)F (centres unmarked) [AC24] | – | – | pest or weed control at 50 µg/cm2 [1]: 50 to 100%; pest or weed control at 50 µg/cm2 ([2]; Table 3: Assay Results Part 1): 50 to 100%
3 | O=C(NC1(C(=O)NCC(F)(F)F)CC1)c1ccc(/C=C/C(c2ccc(Cl)c([N+](=O)[O-])c2)C(F)(F)F)cc1C(F)(F)F (centres unmarked) [Compound P470] | 50 to 100% | 50 to 100% | pest or weed control at 200 µg/mL [4]: 0 to 80%
4 | N#Cc1cc(C(/C=C/c2ccc(C(=O)NC3(C(=O)NCC(F)(F)F)CC3)c(Br)c2)C(F)(F)F)ccc1F (centres unmarked) [Compound P513] | 50 to 100% | 50 to 100% | –
5 | N#Cc1cc(C(/C=C/c2ccc(C(=O)NC3(C(=O)NCC(F)(F)F)CC3)c(C(F)(F)F)c2)C(F)(F)F)ccc1F (centres unmarked) [Compound P515] | 50 to 100% | 50 to 100% | –
6 | Cc1cc(C(/C=C/c2ccc(C(=O)NC3(C(=O)NCC(F)(F)F)CC3)c(Br)c2)C(F)(F)F)ccc1F (centres unmarked) [Compound P693] | 50 to 100% | 50 to 100% | –
7 | O=C(NC1(C(=O)NCC(F)(F)F)CC1)c1ccc(/C=C/C(c2cc(Cl)c(Cl)c(Cl)c2)C(F)(F)C(F)(F)F)cc1Br (centres unmarked) [Compound P1003] | 50 to 100% | 50 to 100% | –
8 | O=C(NC1(C(=O)NCC(F)(F)F)CC1)c1ccc(/C=C/C(c2cc(Cl)c(Cl)c(Cl)c2)C(F)(F)C(F)(F)F)cc1C(F)(F)F (centres unmarked) [Compound P1005] | 50 to 100% | 50 to 100% | –
9 | O=C(NC1(C(=S)NCC(F)(F)F)CC1)c1ccc(/C=C/C(c2cc(Cl)c(Cl)c(Cl)c2)C(F)(F)F)cc1Br (centres unmarked) [Compound P1009] | 50 to 100% | 50 to 100% | –
10 | O=C(NC1(C(=S)NCC(F)(F)F)CC1)c1ccc(/C=C/C(c2cc(Cl)c(Cl)c(Cl)c2)C(F)(F)F)cc1Cl (centres unmarked) [Compound P1010] | 50 to 100% | 50 to 100% | –
11 | Cc1cc(/C=C/C(c2cc(Cl)c(Cl)c(Cl)c2)C(F)(F)F)ccc1C(=O)NC1(C(=S)NCC(F)(F)F)CC1 (centres unmarked) [Compound P1011] | 50 to 100% | 50 to 100% | –
12 | O=C(NC1(C(=O)NCC(F)F)CC1)c1ccc(/C=C/C(c2cc(Cl)c(Cl)c(Cl)c2)C(F)(F)F)cc1C(F)(F)F (centres unmarked) [Compound P1015] | 50 to 100% | 50 to 100% | –
13 | O=C(NC1(C(=O)NCCF)CC1)c1ccc(/C=C/C(c2cc(Cl)c(Cl)c(Cl)c2)C(F)(F)F)cc1C(F)(F)F (centres unmarked) [Compound P1020] | 50 to 100% | 50 to 100% | –
14 | CCNC(=O)C1(NC(=O)c2ccc(/C=C/C(c3cc(Cl)c(Cl)c(Cl)c3)C(F)(F)F)cc2Br)CC1 (centres unmarked) [Compound P1023] | 50 to 100% | 50 to 100% | –
15 | CCNC(=O)C1(NC(=O)c2ccc(/C=C/C(c3cc(Cl)c(Cl)c(Cl)c3)C(F)(F)F)cc2C(F)(F)F)CC1 (centres unmarked) [Compound P1025] | 50 to 100% | 50 to 100% | pest or weed control at 200 µg/mL [4]: 0 to 80%
16 | CCNC(=O)C1(NC(=O)c2ccc(/C=C/C(c3cc(Cl)c(Cl)c(Cl)c3)C(F)(F)F)cc2C)CC1 (centres unmarked) [Compound P1026] | 50 to 100% | 50 to 100% | pest or weed control at 200 µg/mL [4]: 0 to 80%
17 | O=C(NC1(C(=O)NCCC(F)(F)F)CC1)c1ccc(/C=C/C(c2cc(Cl)c(Cl)c(Cl)c2)C(F)(F)F)cc1Br (centres unmarked) [Compound P1033] | 50 to 100% | 50 to 100% | –
18 | O=C(NC1(C(=O)NCCC(F)(F)F)CC1)c1ccc(/C=C/C(c2cc(Cl)c(Cl)c(Cl)c2)C(F)(F)F)cc1C(F)(F)F (centres unmarked) [Compound P1035] | 50 to 100% | 50 to 100% | –
19 | O=C(NC1(C(=O)NCC(F)(F)F)CC1)c1ccc(/C=C/C(c2cc(Cl)cc(Cl)c2)C(F)(F)C(F)(F)F)cc1Br (centres unmarked) [Compound P1043] | 50 to 100% | 50 to 100% | –
20 | O=C(NC1(C(=O)NCC(F)(F)F)CC1)c1ccc(/C=C/C(c2cc(Cl)cc(Cl)c2)C(F)(F)C(F)(F)F)cc1C(F)(F)F (centres unmarked) [Compound P1045] | 50 to 100% | 50 to 100% | –
21 | O=C(NC1(C(=O)NCC(F)(F)F)CC1)c1ccc(/C=C/C(c2cc(Cl)cc(Cl)c2)C(F)(F)F)cc1Br (centres unmarked) [Compound P1048] | 50 to 100% | 50 to 100% | –
22 | O=C(NC1(C(=O)NCC(F)(F)F)CC1)c1ccc(/C=C/C(c2cc(Cl)cc(Cl)c2)C(F)(F)F)cc1C(F)(F)F (centres unmarked) [Compound P1050] | 50 to 100% | 50 to 100% | –
23 | O=C(NC1(C(=O)NCC(F)(F)F)CC1)c1ccc(/C=C/C(c2ccc(Cl)c(Cl)c2)C(F)(F)F)cc1Br (centres unmarked) [Compound P1093] | 50 to 100% | 50 to 100% | –
24 | O=C(NC1(C(=O)NCC(F)(F)F)CC1)c1ccc(/C=C/C(c2ccc(Cl)c(Cl)c2)C(F)(F)F)cc1C(F)(F)F (centres unmarked) [Compound P1095] | 50 to 100% | 50 to 100% | –
25 | O=C(NC1(C(=O)NCC(F)(F)F)CC1)c1ccc(/C=C/C(c2cc(Br)cc(Br)c2)C(F)(F)F)cc1Br (centres unmarked) [Compound P1183] | 50 to 100% | 50 to 100% | –
26 | O=C(NC1(C(=O)NCC(F)F)CC1)c1ccc(/C=C/C(c2cc(Br)cc(Br)c2)C(F)(F)F)cc1Br (centres unmarked) [Compound P1193] | 50 to 100% | 50 to 100% | –
27 | O=C(NC1(C(=O)NCC(F)F)CC1)c1ccc(/C=C/C(c2cc(Br)cc(Br)c2)C(F)(F)F)cc1C(F)(F)F (centres unmarked) [Compound P1195] | 50 to 100% | 50 to 100% | –
28 | O=C(NC1(C(=O)NCC(F)(F)F)CC1)c1ccc(/C=C/C(c2cc(Br)cc(Br)c2)C(F)(F)F)cc1C(F)(F)F (centres unmarked) [Compound P1198] | 50 to 100% | 50 to 100% | –
29 | O=C(NC1(C(=O)NCCF)CC1)c1ccc(/C=C/C(c2cc(Br)cc(Br)c2)C(F)(F)F)cc1C(F)(F)F (centres unmarked) [Compound P1200] | 50 to 100% | 50 to 100% | –
30 | O=C(NC1(C(=O)NCCC(F)(F)F)CC1)c1ccc(/C=C/C(c2cc(Br)cc(Br)c2)C(F)(F)F)cc1Br (centres unmarked) [Compound P1213] | 50 to 100% | 50 to 100% | –
